# From the supplement of paper PMC11208160
# Test: recombinant UMI read abundance after kanamycin selection (control-corrected) (log10(CPM+1)); higher = more efficient recombination; extreme values may be limits of the assay; sequences stand for … in AGTGCAGAGAAAATCGGCCAGTTTTCTCTGCCTGCAGTCCGCATGCCGTGGGACCCCTTGGGTTCTAACCTGTTGCCTAGATTTATGCAGCGGACTGCCTTTCTCCCAAAGTGATAAACCGG…AGGTTGGTTTCACT; site = the 11-nt donor
# How it was run: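 Two replicates each of selected and unselected plating were used in this pooled Escherichia coli screen of donor and donor-binding-loop pairs for the IS621 bridge recombinase. Selection was with IPTG (0.07 mM) and kanamycin. Counts of recombinant UMIs, amplified across the donor–target junction, were converted to CPM, averaged, scaled by control-derived factors and reported as log10(CPM+1).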
# 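Note: IS621 bridge recombinase in Escherichia coli cells against a fixed T5 target plasmid.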
sequence,measurement,value
CGATCATCATGGACCGGTTTTCCCGGTAATCCGTATTTGCT (site TGATCATCTCG),recombinant UMI read abundance (log10),0.00793
CGATCATCATGGACCGGTTTTCCCGGTAATCCGTATTTGCT (site TGATCCTCTAG),recombinant UMI read abundance (log10),0
CGATCATCATGGACCGGTTTTCCCGGTAATCCGTATTTGCT (site TGCTCATCTAG),recombinant UMI read abundance (log10),0
CGATCATCATGGACCGGTTTTCCCGGTAATCCGTATTTGCT (site TTATCATCTAG),recombinant UMI read abundance (log10),1.88
CGATCATCATGGACCGGTTTTCCCGGTAATCCGTATTTGTA (site CGATCATCTAG),recombinant UMI read abundance (log10),0
CGATCATCATGGACCGGTTTTCCCGGTAATCCGTATTTGTA (site CGATCATCTTA),recombinant UMI read abundance (log10),2.57
CGATCATCATGGACCGGTTTTCCCGGTAATCCGTATTTGTT (site CGATCATCTAA),recombinant UMI read abundance (log10),1.4
CGATCATCATGGACCGGTTTTCCCGGTAATCCGTATTTGTT (site CGATCATCTAC),recombinant UMI read abundance (log10),0
CGATCATCATGGACCGGTTTTCCCGGTAATCCGTATTTGTT (site CGATCATCTAG),recombinant UMI read abundance (log10),0
CGATCATCATGGACCGGTTTTCCCGGTAATCCGTATTTGTT (site CGATCATCTAT),recombinant UMI read abundance (log10),0.00529
CGATCCACATGGACCGGTTTTCCCGGTAATCCGTATTTGCT (site CGATCATCTAG),recombinant UMI read abundance (log10),0
CGATCCACATGGACCGGTTTTCCCGGTAATCCGTATTTGCT (site CGATCCACTAG),recombinant UMI read abundance (log10),2.75
CGATCCACATGGACCGGTTTTCCCGGTAATCCGTATTTGTT (site CGATCAACTAA),recombinant UMI read abundance (log10),0.00541
CGATCCACATGGACCGGTTTTCCCGGTAATCCGTATTTGTT (site CGATCCACTAA),recombinant UMI read abundance (log10),2.11
CGATCCACATGGACCGGTTTTCCCGGTAATCCGTATTTGTT (site CGATCGACTAA),recombinant UMI read abundance (log10),0.00891
CGATCCACATGGACCGGTTTTCCCGGTAATCCGTATTTGTT (site CGATCTACTAA),recombinant UMI read abundance (log10),0.00733
CGATCGTCATGGACCGGTTTTCCCGGTAATCCGTATTTGCC (site CGATCATCTAG),recombinant UMI read abundance (log10),0
CGATCGTCATGGACCGGTTTTCCCGGTAATCCGTATTTGCC (site CGATCGTCTGG),recombinant UMI read abundance (log10),1.05
CGATCTTCATGGACCGGTTTTCCCGGTAATCCGTATTTGCT (site CGATCATCTAG),recombinant UMI read abundance (log10),0
CGATCTTCATGGACCGGTTTTCCCGGTAATCCGTATTTGCT (site CGATCCTCTAG),recombinant UMI read abundance (log10),0.00985
CGATCTTCATGGACCGGTTTTCCCGGTAATCCGTATTTGCT (site CGATCGTCTAG),recombinant UMI read abundance (log10),0.00569
CGATCTTCATGGACCGGTTTTCCCGGTAATCCGTATTTGCT (site CGATCTTCTAG),recombinant UMI read abundance (log10),0.601
CGATGTGCATGGACCGGTTTTCCCGGTAATCCGTATTTGGC (site CGATGTGCTGC),recombinant UMI read abundance (log10),3.02
CGATGTTCATGGACCGGTTTTCCCGGTAATCCGTATTTGTC (site CGATGTTCTGA),recombinant UMI read abundance (log10),2.98
CGATTATCATGGACCGGTTTTCCCGGTAATCCGTATTTGCT (site CGATAATCTAG),recombinant UMI read abundance (log10),0.446
CGATTATCATGGACCGGTTTTCCCGGTAATCCGTATTTGCT (site CGATCATCTAG),recombinant UMI read abundance (log10),0
CGATTATCATGGACCGGTTTTCCCGGTAATCCGTATTTGCT (site CGATGATCTAG),recombinant UMI read abundance (log10),0
CGATTATCATGGACCGGTTTTCCCGGTAATCCGTATTTGCT (site CGATTATCTAG),recombinant UMI read abundance (log10),2.28
CGATTCCCATGGACCGGTTTTCCCGGTAATCCGTATTTGCT (site CAATTCCCTAG),recombinant UMI read abundance (log10),0.32
CGATTCCCATGGACCGGTTTTCCCGGTAATCCGTATTTGCT (site CCATTCCCTAG),recombinant UMI read abundance (log10),1.03
CGATTCCCATGGACCGGTTTTCCCGGTAATCCGTATTTGCT (site CGATTCCCTAG),recombinant UMI read abundance (log10),0.704
CGATTCCCATGGACCGGTTTTCCCGGTAATCCGTATTTGCT (site CTATTCCCTAG),recombinant UMI read abundance (log10),0
CGATTGGCATGGACCGGTTTTCCCGGTAATCCGTATTTGAT (site CGATTGGCTAT),recombinant UMI read abundance (log10),2.26
CGCAACACATGGACCGGTTTTCCCGGTAATCCGTATTTGCG (site CGCAACACTCG),recombinant UMI read abundance (log10),1.19
CGCAACCCATGGACCGGTTTTCCCGGTAATCCGTATTTGTT (site CGCAACCCTAA),recombinant UMI read abundance (log10),0.717
CGCAACCCATGGACCGGTTTTCCCGGTAATCCGTATTTGTT (site CGGAATCCTAA),recombinant UMI read abundance (log10),0
CGCAATCCATGGACCGGTTTTCCCGGTAATCCGTATTTGGT (site CGCAATCCTAC),recombinant UMI read abundance (log10),0.135
CGCAATCCATGGACCGGTTTTCCCGGTAATCCGTATTTGGT (site CGGAATCCTAA),recombinant UMI read abundance (log10),0
CGCACCGCATGGACCGGTTTTCCCGGTAATCCGTATTTGCA (site CGCACCGCTTG),recombinant UMI read abundance (log10),2.35
CGCATTACATGGACCGGTTTTCCCGGTAATCCGTATTTGCA (site CGCATTACTTG),recombinant UMI read abundance (log10),1.64
CGCATTTCATGGACCGGTTTTCCCGGTAATCCGTATTTGAG (site CGCATTTCTCT),recombinant UMI read abundance (log10),0.426
CGCCACTCATGGACCGGTTTTCCCGGTAATCCGTATTTGCG (site CGCCACTCTCG),recombinant UMI read abundance (log10),2.05
CGCCCGACATGGACCGGTTTTCCCGGTAATCCGTATTTGCC (site CGCCCGACTGG),recombinant UMI read abundance (log10),2.5
CGCCCTACATGGACCGGTTTTCCCGGTAATCCGTATTTGAG (site CACCCTACTCT),recombinant UMI read abundance (log10),0.475
CGCCCTACATGGACCGGTTTTCCCGGTAATCCGTATTTGAG (site CCCCCTACTCT),recombinant UMI read abundance (log10),0.0131
CGCCCTACATGGACCGGTTTTCCCGGTAATCCGTATTTGAG (site CGCCCTACTCT),recombinant UMI read abundance (log10),1.44
CGCCCTACATGGACCGGTTTTCCCGGTAATCCGTATTTGAG (site CTCCCTACTCT),recombinant UMI read abundance (log10),0.0151
CGCCGCACATGGACCGGTTTTCCCGGTAATCCGTATTTGCT (site CGCCGAACTAG),recombinant UMI read abundance (log10),0
CGCCGCACATGGACCGGTTTTCCCGGTAATCCGTATTTGCT (site CGCCGCACTAG),recombinant UMI read abundance (log10),2.18
CGCCGCACATGGACCGGTTTTCCCGGTAATCCGTATTTGCT (site CGCCGGACTAG),recombinant UMI read abundance (log10),0.00439
CGCCGCACATGGACCGGTTTTCCCGGTAATCCGTATTTGCT (site CGCCGTACTAG),recombinant UMI read abundance (log10),0
CGCCGGACATGGACCGGTTTTCCCGGTAATCCGTATTTGCT (site CGCCGAACTAG),recombinant UMI read abundance (log10),2.52
CGCCGGACATGGACCGGTTTTCCCGGTAATCCGTATTTGCT (site CGCCGCACTAG),recombinant UMI read abundance (log10),0.00459
CGCCGGACATGGACCGGTTTTCCCGGTAATCCGTATTTGCT (site CGCCGGACTAG),recombinant UMI read abundance (log10),1.82
CGCCGGACATGGACCGGTTTTCCCGGTAATCCGTATTTGCT (site CGCCGTACTAG),recombinant UMI read abundance (log10),0
CGCCGTACATGGACCGGTTTTCCCGGTAATCCGTATTTGCT (site AGCCGTACTAG),recombinant UMI read abundance (log10),0.192
CGCCGTACATGGACCGGTTTTCCCGGTAATCCGTATTTGCT (site CACCGTACTAG),recombinant UMI read abundance (log10),0.33
CGCCGTACATGGACCGGTTTTCCCGGTAATCCGTATTTGCT (site CCCCGTACTAG),recombinant UMI read abundance (log10),0.907
CGCCGTACATGGACCGGTTTTCCCGGTAATCCGTATTTGCT (site CGACGTACTAG),recombinant UMI read abundance (log10),0.00883
CGCCGTACATGGACCGGTTTTCCCGGTAATCCGTATTTGCT (site CGCAGTACTAG),recombinant UMI read abundance (log10),0.331
CGCCGTACATGGACCGGTTTTCCCGGTAATCCGTATTTGCT (site CGCCATACTAG),recombinant UMI read abundance (log10),0.922
CGCCGTACATGGACCGGTTTTCCCGGTAATCCGTATTTGCT (site CGCCCTACTAG),recombinant UMI read abundance (log10),0.301
CGCCGTACATGGACCGGTTTTCCCGGTAATCCGTATTTGCT (site CGCCGAACTAG),recombinant UMI read abundance (log10),0
CGCCGTACATGGACCGGTTTTCCCGGTAATCCGTATTTGCT (site CGCCGCACTAG),recombinant UMI read abundance (log10),0.796
CGCCGTACATGGACCGGTTTTCCCGGTAATCCGTATTTGCT (site CGCCGGACTAG),recombinant UMI read abundance (log10),0
CGCCGTACATGGACCGGTTTTCCCGGTAATCCGTATTTGCT (site CGCCGTACTAA),recombinant UMI read abundance (log10),0.0116
CGCCGTACATGGACCGGTTTTCCCGGTAATCCGTATTTGCT (site CGCCGTACTAC),recombinant UMI read abundance (log10),0.00604
CGCCGTACATGGACCGGTTTTCCCGGTAATCCGTATTTGCT (site CGCCGTACTAG),recombinant UMI read abundance (log10),1.59
